Source: patent publication US12410157B2, “Compound useful as toll-like receptor 7 activation inhibitor” (TOYAMA PREFECTURAL UNIVERSITY, priority 2020, dated 2025)
“And” between values parts separate entries of the source, which are not always exact repeats. Equal values may be shown once. “Also recorded” adds a separate entry of the source. Where a name gives a salt, the structure may show the parent alone.

Legend:
[1] = target: B lymphocyte stimulator (BLyS) (Homo sapiens, UniProt Q9Y275); settings: after 52 weeks of intravenous administration (10 mg/kg); cited from earlier work
[2] = target: T1, TLR7 (Homo sapiens, UniProt Q9NYK1); assay: TLR7 inhibitory effect (IL-6) in PBMCs from patients with systemic lupus erythematosus; format: cell-based; settings: SLE patient PBMCs
T1 construct: PBMCs were isolated from 7 mL of blood collected from patients with systemic lupus erythematosus; endogenous in cells; host or cells: PBMCs from patients with systemic lupus erythematosus
T1 sequence (Q9NYK1 27-1049): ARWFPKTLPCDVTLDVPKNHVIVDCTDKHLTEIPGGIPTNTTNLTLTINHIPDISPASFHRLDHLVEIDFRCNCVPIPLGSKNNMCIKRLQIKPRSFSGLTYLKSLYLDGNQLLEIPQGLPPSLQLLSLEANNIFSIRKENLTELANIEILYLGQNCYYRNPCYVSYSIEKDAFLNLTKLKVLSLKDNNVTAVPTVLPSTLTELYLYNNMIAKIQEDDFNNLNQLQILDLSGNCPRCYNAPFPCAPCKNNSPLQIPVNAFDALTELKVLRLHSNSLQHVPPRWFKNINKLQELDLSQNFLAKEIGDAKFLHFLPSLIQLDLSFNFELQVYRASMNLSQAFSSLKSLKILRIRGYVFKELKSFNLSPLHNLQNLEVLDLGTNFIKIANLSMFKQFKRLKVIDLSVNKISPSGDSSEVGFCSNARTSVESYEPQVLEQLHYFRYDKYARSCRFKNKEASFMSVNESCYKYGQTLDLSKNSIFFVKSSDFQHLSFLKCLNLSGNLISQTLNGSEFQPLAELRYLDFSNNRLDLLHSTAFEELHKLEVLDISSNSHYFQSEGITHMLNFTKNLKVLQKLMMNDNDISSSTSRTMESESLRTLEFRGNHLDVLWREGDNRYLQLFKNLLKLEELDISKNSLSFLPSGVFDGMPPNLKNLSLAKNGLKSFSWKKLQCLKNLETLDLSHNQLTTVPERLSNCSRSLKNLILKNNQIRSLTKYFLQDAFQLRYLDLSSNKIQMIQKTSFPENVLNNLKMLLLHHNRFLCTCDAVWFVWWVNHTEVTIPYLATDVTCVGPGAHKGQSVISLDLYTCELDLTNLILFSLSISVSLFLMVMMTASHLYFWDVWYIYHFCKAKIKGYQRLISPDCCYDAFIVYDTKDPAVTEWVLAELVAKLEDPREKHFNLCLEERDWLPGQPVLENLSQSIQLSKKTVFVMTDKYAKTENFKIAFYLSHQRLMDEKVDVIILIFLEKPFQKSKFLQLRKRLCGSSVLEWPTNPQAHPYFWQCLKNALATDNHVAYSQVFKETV
Experimental: The TLR7 inhibitory effect of B2-24-4-5A·HCOOH on PBMCs derived from patients with systemic lupus erythematosus was studied. PBMCs were isolated from 7 mL of blood collected from patients with systemic lupus erythematosus. Isolated PBMCs were spread into each well of a 96-well plate containing RPMI 1640 medium containing 10% (v/v) fetal calf serum (FCS), penicillin, streptomycin, L-glutamic acid, and 2-mercaptoethanol at 0.5×10^5/100 μL and incubated at 37° C. in the presence of 5% (v/v) CO2. 50 μL of B2-24-4-5A·HCOOH, B2-24-4·HCl or the comparative drug hydroxychloroquine sulfate (HCQ) was added to each well to achieve a final concentration of 0.1 μM, 0.5 μM, 1 μM, 5 μM, 10 μM or 50 μM and incubated for 30 minutes. The TLR7 ligand, Gardiquimod (Invivogen), was added at a final concentration of 3 μg/mL and incubated for 24 hours. After incubation, all culture media were collected and the concentration of IL-6 in the culture medium was quantified using ELISA (used kit: human IL-6 DuoSet ELISA (trade name), manufactured by R&D Systems).

[3] = test system: systemic lupus erythematosus model mice (NZBWF1); assay: Therapeutic effect in mouse model of spontaneous systemic lupus erythematosus; format: in vivo
Experimental: Systemic lupus erythematosus model mice (NZBWF1, 20 weeks old, female, n=55) were divided into saline-administered group (control, n=25), B2-24-4-5A·HCOOH-administered group (n=10), B2-24-4·HCOOH-administered group (n=5) and HCQ-administered group (n=15). The saline-administered group received saline (100 l) orally once a day, every day; the B2-24-4-5A·HCOOH-administered group received 10 mg/kg of B2-24-4-5A·HCOOH (100 l) orally once a day, every day; the B2-24-4·HCOOH-administered group received 10 mg/kg of B2-24-4·HCOOH (100 l) orally once a day, every day; the HCQ-administered group received 10 mg/kg of HCQ (100 l) orally once a day, every day. Fifteen weeks after the start of treatment, urine was collected from surviving mice in the saline-administered group (control, n=17), B2-24-4-5A·HCOOH-administered group (n=10), B2-24-4·HCOOH-administered group (n=5), and HCQ-administered group (n=12), and the mice were euthanized. After euthanasia, blood was drawn from the abdominal aorta of the mice, and the kidneys and spleen were removed.
Mice that died of natural causes during the 15-week period from the start of treatment were counted as deaths, and survival analysis was performed using the Kaplan Meier method. Blood collected from the abdominal aorta of each mouse, excluding the deceased cases, was centrifuged and serum was prepared. Determination of urea nitrogen and creatinine levels in serum was entrusted to Oriental Yeast Co. Albumin levels in urine were determined by ELISA (used kit: Levis Urinary Albumin-Mouse (S-type) (trade name) (Fujifilm Wako Shibayagi Corporation)). The removed kidneys were fixed with 4% (w/v) paraformaldehyde, and immunohistochemical staining was entrusted to Morpho Technology, Inc. In PAS-stained kidney tissue sections, histological findings of 100 glomeruli were evaluated. For increased cells and substrate in the mesangial area, endothelial cell swelling and cellular infiltration of the capillary lumen (intratubular proliferation), and glomeruli with inflammatory crescents (extratubular proliferation), each of the 100 glomeruli was assigned a grade from grade 0 to grade 2 according to severity and scored on a 6-point scale.
FIG. 10F is a photograph showing C3 deposition in the glomeruli of a mouse (#1) in the saline-administered group, a mouse (#10) in the B2-24-4-5A·HCOOH-administered group, a mouse (#4) in the B2-24-4·HCOOH-administered group and a mouse (#14) in the HCQ-administered group. […] In the renal tissue sections of a mouse (#1) in the saline-administered group, findings of active glomerulonephritis such as diffuse mesangial and intratubular proliferation were observed. […] The plots in FIGS. 10B, 10C, and 10D show the data for each individual, each bold line is the mean of the group data, and each error bar standard error. Scale bars in FIGS. 10E and 10F represent 100 μm. […]

[4] = target: T2, TLR7 (Mus musculus, UniProt P58681); assay: TLR7 inhibition (R848-induced serum IFN-α) by intraperitoneal administration in mice; format: in vivo, mice (C57BL/6N); settings: Example 13
T2 construct: from tissue; host or cells: whole animal, C57BL/6N mice (serum IFN-α after R848)
T2 sequence (P58681 27-1050): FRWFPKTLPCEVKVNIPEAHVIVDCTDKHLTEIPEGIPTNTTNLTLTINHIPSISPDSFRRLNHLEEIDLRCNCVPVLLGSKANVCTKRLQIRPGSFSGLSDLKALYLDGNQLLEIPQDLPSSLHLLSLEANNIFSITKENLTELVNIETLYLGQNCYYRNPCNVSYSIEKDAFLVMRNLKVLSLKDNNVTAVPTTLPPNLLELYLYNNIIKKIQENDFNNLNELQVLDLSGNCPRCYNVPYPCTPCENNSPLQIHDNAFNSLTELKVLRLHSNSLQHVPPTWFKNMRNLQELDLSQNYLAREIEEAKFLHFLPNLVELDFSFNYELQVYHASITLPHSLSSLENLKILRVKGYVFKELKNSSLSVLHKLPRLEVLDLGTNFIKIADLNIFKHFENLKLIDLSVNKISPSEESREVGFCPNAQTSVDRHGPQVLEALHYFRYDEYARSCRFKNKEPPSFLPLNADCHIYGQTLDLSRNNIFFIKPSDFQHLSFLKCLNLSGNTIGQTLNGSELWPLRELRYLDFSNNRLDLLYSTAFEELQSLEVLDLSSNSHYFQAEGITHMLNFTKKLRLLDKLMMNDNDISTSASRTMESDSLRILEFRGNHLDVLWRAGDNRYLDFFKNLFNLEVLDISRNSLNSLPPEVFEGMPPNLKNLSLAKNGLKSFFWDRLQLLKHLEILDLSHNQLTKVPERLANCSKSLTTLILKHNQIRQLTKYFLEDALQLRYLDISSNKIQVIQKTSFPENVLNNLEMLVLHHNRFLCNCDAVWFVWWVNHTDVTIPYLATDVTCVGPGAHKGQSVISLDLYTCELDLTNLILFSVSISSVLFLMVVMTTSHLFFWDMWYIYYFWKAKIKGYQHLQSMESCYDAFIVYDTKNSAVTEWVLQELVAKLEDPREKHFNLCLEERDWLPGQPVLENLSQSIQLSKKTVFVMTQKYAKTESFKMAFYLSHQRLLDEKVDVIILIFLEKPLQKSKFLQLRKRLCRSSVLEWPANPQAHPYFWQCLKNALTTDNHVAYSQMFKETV
Experimental: Normal mice (C57BL/6N, 11 weeks old, female) were administered B2-24-4-5A·HCOOH (1, 5, 10, 100 and 1000 μg) or hydroxychloroquine sulfate (HCQ, 1000 μg) as a comparison drug intraperitoneally, followed by 5 μg of R848 after 30 minutes. The solvent was saline solution. 1 hour after R848 administration, blood was collected and the concentration of IFN-α in the serum was quantified using ELISA (used kit: Mouse IFN alpha Platinum ELISA (trade name), eBioscience). The plots in FIG. 7 represent the data for each individual, each bold line represents the mean value of each group data, and each error bar represents the standard error of each group data.
The same method as in Example 13 was used to study the TLR7 inhibition effect of intraperitoneal administration of B2-24-4·HCl, B2-24-4-5A or B2-24-4-5A·HCOOH in mice. B2-24-4·HCl, B2-24-4-5A and B2-24-4-5A·HCOOH were administered at a dose of 10 μg. The plots in FIG. 8 represent the data for each individual, each bold line represents the mean of each group data, and each error bar represents the standard error of each group data.

Sequence of B lymphocyte stimulator (BLyS) (Q9Y275 134-285 limits assumed): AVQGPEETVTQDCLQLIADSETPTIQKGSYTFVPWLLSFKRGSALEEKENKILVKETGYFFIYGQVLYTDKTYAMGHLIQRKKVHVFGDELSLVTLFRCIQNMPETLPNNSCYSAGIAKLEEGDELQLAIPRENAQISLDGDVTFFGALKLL

belimumab
Responder rate [1]: 54%

CCN(CCO)CCCC(C)Nc1ccnc2cc(Cl)ccc12 (centres unmarked) [HCQ, hydroxychloroquine sulfate]
Order of strength of the effect on IL-6 production ([2]; FIG. 4): stronger for B2-24-4·HCl, B2-24-4-5A·HCOOH, and HCQ, in that order
IL-6 production induced by gardiquimod stimulation ([2]; 0.1-50 μM, Gardiquimod 3 μg/mL, 24 hours): attenuated
Surviving mice fifteen weeks after the start of treatment ([3]; 10 mg/kg orally once a day, groups started with n=10, n=5, n=15 (HCQ)): 12
Tubulo-interstitial inflammation ([3]; per mouse): Not found; also recorded: Found
score ([3]; per mouse, histological score on a 6-point scale): 1.74 and 0.70 and 0.00 and 1.64 and 0.30 and 2.58 and 0.07 and 0.14 and 3.14 and 0.37 and 2.19 and 0.18
Inside 0 ([3]; per mouse, of 100 glomeruli, endothelial cell swelling and cellular infiltration of capillary lumen, Grade 0): 43 and 87 and 100 (2×) and 38 and 95 and 12 and 99 and 15 and 96 and 22 and 98
Inside 1 ([3]; per mouse, of 100 glomeruli, endothelial cell swelling and cellular infiltration of capillary lumen, Grade 1): 38 and 13 and 0 (2×) and 47 and 5 and 36 and 1 and 64 and 4 and 58 and 2
Inside 2 ([3]; per mouse, of 100 glomeruli, endothelial cell swelling and cellular infiltration of capillary lumen, Grade 2): 19 and 0 (7×) and 15 and 52 and 21 and 20
Outside 0 ([3]; per mouse, of 100 glomeruli, glomerulus with semilunar, Grade 0): 100 (10×) and 53 and 96
Outside 1 ([3]; per mouse, of 100 glomeruli, glomerulus with semilunar, Grade 1): 0 (10×) and 26 and 4
Outside 2 ([3]; per mouse, of 100 glomeruli, glomerulus with semilunar, Grade 2): 0 (11×) and 21
Mes0 ([3]; per mouse, of 100 glomeruli, increase in cells and substrates in the mesangium region, Grade 0: None, 10 mg/kg orally, 15 weeks, 10 mg/kg): 15 and 43 and 100 and 16 and 75 and 8 and 93 and 87 and 7 and 68 and 20 and 84
Mes1 ([3]; per mouse, of 100 glomeruli, mesangium region, Grade 1: Moderate or lower): 72 and 57 and 0 and 81 and 25 and 66 and 7 and 13 and 46 and 31 and 43 and 16
Mes2 ([3]; per mouse, of 100 glomeruli, mesangium region, Grade 2: Moderate or higher): 13 and 0 (6×) and 3 and 26 and 47 and 1 and 37

C=C(C)[C@@H]1CC[C@]2(COC(=O)C2)C[C@H]1c1ccc(CN2CCNCC2)cc1 [B2-24-4-5A]
Order of strength of the effect on IFN-α production ([4]; 10 μg, FIG. 8): stronger with B2-24-4-5A·HCOOH, B2-24-4-5A and B2-24-4·HCl in that order
IFN-α production induced by R848 ([4]; dose of 10 μg intraperitoneally): attenuated
